# From patent publication US20090314217A1, “APPARATUS AND METHOD FOR TREATING NON-HUMAN MAMMALS” (Under The Boardwalk Properties 8 (Proprietary) Limited, priority 2006, published 2009)
# What was measured:
# [1] = Blood tests on the horses on the days of the race (Table 1); format: in vivo, horse
# Protocol: The apparatus 10 was used in a confidential trial to treat five horses taking part in an endurance race. The five horses were called Moniq, Shamon, Pauli, Viola and Ophelia. During treatment, the average temperature inside the enclosure 22 was between 42° C. and 45° C. and an oxygen flow rate of 1 l/min was supplied to the ozonator 52. During treatment, the average heart-rate for the non-accustomed horses was 42 beats per minute. The superficial skin temperature measured on the neck and the point of the shoulder of the horses was 39° C. in each case.
# Table 1 provides information on the blood tests conducted on the five horses, on the days of the race as indicated.
# [2] = Haematocrit in horses with billiary treated in apparatus 10; format: in vivo, horse; conditions: after two treatment sessions, increased from 31
# [3] = horse Pauli, race day 2, pre-treated before race
# [4] = horse Shamon, race day 3, treated day 2
# [5] = horse Viola, race day 2, treated days 1 and 2, day 1 value 40
smiles,measurement,setting,value
O=[O+][O-] [ozone],MCH = mean corpuscular hemoglobin,[1]; [3],15.8 pg
same,MCHC = mean corpuscular hemoglobin concentration,[1]; [3],38.8 gram/deciliter
same,MCV = mean corpuscular volume,[1]; [3],41 femtoliter
same,MON % = monocytes percentage,[1]; [3],4.0%
same,MON = monocytes,[1]; [3],8e+08 L⁻¹
same,Na+ = sodium,[1]; [3],143 mmol/L
same,PCT,[1]; [3],0.05%
same,PDW,[1]; [3],33.8
same,PLT = platelets,[1]; [3],1.1e+11 L⁻¹
same,RBC = red blood cell count,[1]; [3],1.05e+13 L⁻¹
same,RDWc,[1]; [3],21.9%
same,TBIL = total biliruben,[1]; [3],96 µmol/L
same,TP = total protein,[1]; [3],79 gram/liter
same,WBC = white blood cell count,[1]; [3],1.98e+10 L⁻¹
same,ALB = albumin,[1]; [4],31 gram/liter
same,AST = aspertate amino transferase,[1]; [4],722 Units/liter
same,BUN = blood urea nitrogen,[1]; [4],9 mmol/L
same,CA++ = calcium,[1]; [4],2.76 mmol/L
same,CK = creatine kinase,[1]; [4],1450 International Units/liter
same,CRE = creatinine,[1]; [4],122 µmol/L
same,GGT = gamma glutamiel transferase,[1]; [4],27 Units/liter
same,GLOB = globulin,[1]; [4],35 gram/liter
same,GLU = glucose,[1]; [4],6.3 mmol/L
same,GR % = granulocytes percentage,[1]; [4],78.4%
same,GRA = granulocytes,[1]; [4],1.24e+10 L⁻¹
same,HB = hemoglobin,[1]; [4],11.9 d/deciliter
same,K+ = potassium,[1]; [4],3.8 mmol/L
same,LY % = lymphocytes percentage,[1]; [4],16.4%
same,LYM = lymphocytes,[1]; [4],2.59e+09 L⁻¹
same,MCH = mean corpuscular hemoglobin,[1]; [4],15.8 pg
same,MCHC = mean corpuscular hemoglobin concentration,[1]; [4],39.3 gram/deciliter
same,MCV = mean corpuscular volume,[1]; [4],40 femtoliter
same,MON % = monocytes percentage,[1]; [4],5.2%
same,MON = monocytes,[1]; [4],8.2e+08 L⁻¹
same,Na+ = sodium,[1]; [4],138 mmol/L
same,PCT,[1]; [4],0.06%
same,PDW,[1]; [4],35.8
same,PLT = platelets,[1]; [4],1.02e+11 L⁻¹
same,RBC = red blood cell count,[1]; [4],7.56e+12 L⁻¹
same,RDWc,[1]; [4],22.1%
same,TBIL = total biliruben,[1]; [4],52 µmol/L
same,TP = total protein,[1]; [4],66 gram/liter
same,WBC = white blood cell count,[1]; [4],1.58e+10 L⁻¹
same,PCT,"[1]; horse Viola, race day 2, treated days 1 and 2, day 1 value 0.09",0.05%
same,MON = monocytes,"[1]; horse Viola, race day 2, treated days 1 and 2, day 1 value 0.64",5.6e+08 L⁻¹
same,LYM = lymphocytes,"[1]; horse Viola, race day 2, treated days 1 and 2, day 1 value 1.34",2.14e+09 L⁻¹
same,GLU = glucose,"[1]; horse Viola, race day 2, treated days 1 and 2, day 1 value 2.9",5.7 mmol/L
same,CA++ = calcium,"[1]; horse Viola, race day 2, treated days 1 and 2, day 1 value 2.97",2.88 mmol/L
same,MON % = monocytes percentage,"[1]; horse Viola, race day 2, treated days 1 and 2, day 1 value 4.3",4.3%
same,K+ = potassium,"[1]; horse Viola, race day 2, treated days 1 and 2, day 1 value 5.1",3.7 mmol/L
same,LY % = lymphocytes percentage,"[1]; horse Viola, race day 2, treated days 1 and 2, day 1 value 8.9",16.3%
same,BUN = blood urea nitrogen,"[1]; horse Viola, race day 2, treated days 1 and 2, day 1 value 9",9 mmol/L
same,RBC = red blood cell count,"[1]; horse Viola, race day 2, treated days 1 and 2, day 1 value 9.73",9.03e+12 L⁻¹
same,GRA = granulocytes,"[1]; horse Viola, race day 2, treated days 1 and 2, day 1 value 13.0",1.04e+10 L⁻¹
same,WBC = white blood cell count,"[1]; horse Viola, race day 2, treated days 1 and 2, day 1 value 15.0",1.31e+10 L⁻¹
same,HB = hemoglobin,"[1]; horse Viola, race day 2, treated days 1 and 2, day 1 value 15.2",14.4 d/deciliter
same,MCH = mean corpuscular hemoglobin,"[1]; horse Viola, race day 2, treated days 1 and 2, day 1 value 15.7",16.0 pg
same,GGT = gamma glutamiel transferase,"[1]; horse Viola, race day 2, treated days 1 and 2, day 1 value 17",18 Units/liter
same,RDWc,"[1]; horse Viola, race day 2, treated days 1 and 2, day 1 value 22.4",22.6%
same,ALB = albumin,"[1]; horse Viola, race day 2, treated days 1 and 2, day 1 value 34",30 gram/liter
same,PDW,"[1]; horse Viola, race day 2, treated days 1 and 2, day 1 value 35.8",31.0
same,MCHC = mean corpuscular hemoglobin concentration,"[1]; horse Viola, race day 2, treated days 1 and 2, day 1 value 39.4",39.0 gram/deciliter
same,GLOB = globulin,[1]; [5],39 gram/liter
same,MCV = mean corpuscular volume,[1]; [5],41 femtoliter
same,TBIL = total biliruben,"[1]; horse Viola, race day 2, treated days 1 and 2, day 1 value 41",48 µmol/L
same,TP = total protein,"[1]; horse Viola, race day 2, treated days 1 and 2, day 1 value 75",69 gram/liter
same,GR % = granulocytes percentage,"[1]; horse Viola, race day 2, treated days 1 and 2, day 1 value 86.8",79.4%
same,CRE = creatinine,"[1]; horse Viola, race day 2, treated days 1 and 2, day 1 value 131",99 µmol/L
same,Na+ = sodium,"[1]; horse Viola, race day 2, treated days 1 and 2, day 1 value 144",138 mmol/L
same,PLT = platelets,"[1]; horse Viola, race day 2, treated days 1 and 2, day 1 value 146",9.9e+10 L⁻¹
same,CK = creatine kinase,"[1]; horse Viola, race day 2, treated days 1 and 2, day 1 value 5896",1599 International Units/liter
same,AST = aspertate amino transferase,"[1]; horse Viola, race day 2, treated days 1 and 2, day 1 value >2000",1814 Units/liter
same,haematocrit,[2],38%
